Marks after values point to notes of the source that are not given here. Blank lines part the entries; values can stand above or below the compound they belong to.
What was measured:
[1] = system: DMBA-induced rat mammary tumor; settings: cited from earlier work
[2] = cited from earlier work
[3] = target: serum retinol-binding protein, RBP (Homo sapiens, UniProt P02753); settings: cited from earlier work
[4] = system: DMBA-induced rat mammary tumor; experiment: DMBA-induced rat mammary tumor model, retinoid-containing diets; format: in vivo
Procedure: Preliminary evaluation of the mammary tumor chemotherapeutic activity of 4-HBRCG (7) was conducted, and its toxicity profile was also assessed. As previously described,^7, 12 tumor-bearing female rats (treated ca. 50 days earlier with 7,12-dimethylbenz(a)anthracene [DMBA]) were fed the control or retinoid-containing diets (RA (2), 4-HPR (3) or 4-HBRCG (7)) at 2 mmole/kg diet for 22 days.
(§1) Animal Studies: Mammary tumors were induced by intragastric intubation of 50-day old female Sprague-Dawley rats (Harlan Industries, Indianapolis, Ind.) with a single dose of 15 mg DMBA in 1.0 ml of sesame oil per rat. The rats were then maintained on a powdered Teklad 22/5 rodent chow diet (W) 8640 (Harlan Industries, Indianapolis, Ind.), and allowed food and water ad libitum. Four months later, rats which had developed palpable tumors were randomly assigned to the experimental groups (4 rats/group). The retinoid-treated groups were fed diets supplemented with 2 mmol/kg diet of atRA, 4-HPR, or 4-HBRCG, respectively. The retinoids were added to the diet in a vehicle consisting of 25 ml of ethanol: tricaprylin (1:4 v/v) plus 2% (w/v) of α-tocopherol as previously described.^9 This vehicle was also added to the control diet. The additives were blended into the chow diets using a Hobart food mixer. The diets were fed in stainless steel feeders designed with food hoppers. The food was replaced weekly with freshly prepared diets. Food consumption was determined once weekly, and from that the average daily consumption/rat was estimated. These diets were continuously fed for 22 days. Animals were also weighted weekly and monitored for general health status and signs of possible toxicity due to treatment.
(§2) Baseline measurement of initial tumor sizes, numbers and rat body weights were determined immediately before commencement of treatments, and final measurements were recorded just prior to sacrifice of the animals. Animals were palpated for tumors twice weekly and tumor diameters were measured weekly by a micrometer caliper. Tumor volumes were calculated using the formula [V= 4/3 πr^3] where r is one-half the mean of the sum of the largest diameter and the axis at right angle to it. All tumors as well as lungs, liver, kidney and femur were excised at the end of the experiment for chemical and histopathological evaluation. Blood samples were also taken from each animal for determination of plasma retinol and triglyceride levels.

[5] = Body weight change during retinoid feeding; format: in vivo, rat; settings: relative to baseline body weight over 22 days; 2 mmol/kg diet
Procedure: as §1, §2

[6] = system: CYP26B1 mRNA; experiment: Induction of CYP26B1 mRNA in lung (Q-PCR); format: in vivo, rat; settings: at sacrifice, retinoid-fed rats, 2 mmol/kg diet; data not shown
[7] = Femur bone mineral content; format: in vivo, rat; settings: end of feeding study; FIG. 2B
Description: Bone Mineral Content. The femur was disarticulated from the leg, and the adhering soft tissue was removed by dissection. Femurs were scanned using the Lunar PIXImus 2 system (Model X2608, General Electric using the LUNAR software version 1.45), and control measurements were made using the small animal quality control phantom. Femurs were scanned 5 times each with re-positioning at each measure. The average value of the bone mineral content (BMC) in grams for each animal is reported as one independent measure.

[8] = target: T1, RARβ (Homo sapiens, UniProt P10826); settings: cited from earlier work
T1 sequence (P10826 1-455): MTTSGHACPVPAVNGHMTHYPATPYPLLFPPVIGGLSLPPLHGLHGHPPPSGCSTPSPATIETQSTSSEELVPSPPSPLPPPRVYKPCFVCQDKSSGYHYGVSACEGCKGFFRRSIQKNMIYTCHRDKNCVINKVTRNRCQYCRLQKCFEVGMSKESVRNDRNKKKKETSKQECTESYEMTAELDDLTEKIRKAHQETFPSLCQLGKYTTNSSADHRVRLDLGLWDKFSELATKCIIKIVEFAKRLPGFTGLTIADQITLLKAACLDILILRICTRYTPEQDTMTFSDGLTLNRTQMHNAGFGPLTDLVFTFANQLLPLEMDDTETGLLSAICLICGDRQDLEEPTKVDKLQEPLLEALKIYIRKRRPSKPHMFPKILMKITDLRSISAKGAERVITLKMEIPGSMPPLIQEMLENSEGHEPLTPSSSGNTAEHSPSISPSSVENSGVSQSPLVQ

[9] = vitamin A-deficient rats; cited from earlier work
[10] = Terminal plasma drug levels (plasma retinoid assay, HPLC); format: in vivo, rat; settings: day 22 of treatment; 2 mmol/kg diet; ± SEM
Procedure: (§3) Plasma Retinoid Assay. To 500 μL of plasma was added 150 μL of ethanol containing 0.75 μg of internal standard (N-(4-chlorophenyl) retinamide). After mixing 30 sec., 500 μL of ethyl acetate was added followed by 1 min. of mixing and centrifugation for 5 minutes at 1000 rpm in an IEC CL centrifuge. The ethyl acetate layer was removed and syringe filtered through a 0.45 um filter. The ethyl acetate extraction was repeated two more times. The combined extracts were evaporated and the residue reconstituted in 100 μL of methanol. The methanol extract (20 μL) was analyzed by HPLC on a Beckman Instruments model 127 instrument equipped with a model 166 UV detector. Chromatography was done on a precolumn equipped 250×4.6 mm Bechman Ultrasphere ODS column with an 85% methanol/water mobile phase (both containing 10 mM ammonium acetate) flowing at 1 mL/min. Analysis for both internal standard and retinol was conducted at 350 nm and internal standard recoveries and retinol levels were determined by comparison with standard curves, with adjustment of the retinol level based on recovery. Recoveries of internal standard averaged ca. 78%. […] In the 4-HPR treated group, plasma levels of this retinoid were evaluated simultaneously in the same samples as above. In order to avoid interfering substances, plasma treatment retinoid levels for RA and 4-HBRCG were measured using the above system and a step gradient of 75% methanol for 15 min. followed by 85% methanol for 40 minutes.

[11] = background statement; cited from earlier work
[12] = Plasma triglyceride measurement; format: in vivo, rat; settings: 2 mmol/kg diet, 22 days; FIG. 2A
Procedure: Plasma Triglyceride Measurement. Bloods were drawn from anesthetized animals in the presence of EDTA as an anticoagulant, and the resulting plasma was used for the measurement of plasma “true” triglyceride levels using a kit from Sigma-Aldrich (Saint Louis, Mo.). Briefly, the total plasma triglyceride and glycerol concentrations were determined, and the glycerol component was subtracted from the total plasma triglyceride measurement to obtain the “true” serum triglyceride concentration.

[13] = Plasma retinol level (HPLC); format: in vivo, rat; settings: 2 mmol/kg diet
Procedure: as §2, §3

[14] = target: T2, RARγ (Homo sapiens, UniProt P13631); settings: cited from earlier work
T2 sequence (P13631 1-454): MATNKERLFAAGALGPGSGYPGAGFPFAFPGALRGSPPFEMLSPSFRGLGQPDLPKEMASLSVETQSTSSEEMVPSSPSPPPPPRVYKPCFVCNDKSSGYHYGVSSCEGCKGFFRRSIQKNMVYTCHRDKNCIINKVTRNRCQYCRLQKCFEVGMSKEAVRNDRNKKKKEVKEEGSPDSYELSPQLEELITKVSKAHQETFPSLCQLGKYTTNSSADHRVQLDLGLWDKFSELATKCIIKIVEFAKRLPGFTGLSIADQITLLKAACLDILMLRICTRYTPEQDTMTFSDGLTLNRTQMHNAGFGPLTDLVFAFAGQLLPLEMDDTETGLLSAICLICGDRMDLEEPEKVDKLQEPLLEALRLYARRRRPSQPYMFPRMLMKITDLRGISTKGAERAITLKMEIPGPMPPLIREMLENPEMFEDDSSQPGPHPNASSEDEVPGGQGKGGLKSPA

[15] = system: CYP26A1 mRNA; experiment: Induction of CYP26A1 mRNA in liver (Q-PCR); format: in vivo, rat; settings: at sacrifice, retinoid-fed rats, 2 mmol/kg diet; FIG. 4
[16] = system: CYP26B1 mRNA; settings: vitamin A-deficient rats; background; cited from earlier work
[17] = number of individual tumors, 2 mmol/kg diet, 22 days

Structure (SMILES): CC1=C(/C=C/C(C)=C/C=C/C(C)=C/C(=O)Cc2ccc(O)cc2)C(C)(C)CCC1 [4-HBR, 4-hydroxybenzyl retinone]
Chemotherapeutic activity in DMBA-induced rat mammary tumor model [1]: equiactive chemotherapeutics
Effect on blood retinol levels [2]: does not lower blood retinol levels
Binding to RBP [3]: equivalent binding to RBP

Effect on femur bone mineral content vs control [7]: showed no such effect
Plasma retinoid concentration (terminal plasma drug level) [10]: 0.67 ± 0.07 µg/mL
Effect on serum triglyceride concentration [12]: small but insignificant increase
Effect on blood retinol [13]: the same amount of 4-HPR did
Plasma retinol ([13]; day 22 of treatment, mean ± SEM): 0.21 ± 0.05 ^e μg/ml
Structure (SMILES): CC1=C(/C=C/C(C)=C/C=C/C(C)=C/C(=O)Nc2ccc(O)cc2)C(C)(C)CCC1 [4-HPR (3), N-(4-hydroxyphenyl) retinamide]
% Change in tumor volume from baseline ([4]; 2 mmol/kg diet for 22 days): −33 ^d %
Final tumor volume ([4]; 2 mmol/kg diet for 22 days, mean ± SEM): 0.08 ± 0.02 cm^3
Initial tumor volumes ([4]; baseline before treatment, mean ± SEM): 0.12 ± 0.03 cm^3
Complete regression (tumors that totally disappeared) [4, 17]: 1
No effect [4, 17]: 3
Partial regression (tumors with 25-75% decrease in volume) [4, 17]: 15
New tumors ([4]; number of tumors, 2 mmol/kg diet, 22 days): 0
% Weight change [5]: +3%
Induction of CYP26B1 mRNA in lung [6]: 20 fold above control
Chemotherapeutic activity in DMBA-induced rat mammary tumor model [1]: equiactive chemotherapeutics
Times less potent than atRA in competing for [3H]atRA binding to RARβ [8]: ~3000 times
Binding to RBP [3]: equivalent binding to RBP
Hydrolysis to liberate retinoic acid [9]: is hydrolyzed to liberate retinoic acid
Teratogenicity relative to RA [11]: 100 times less teratogenic than RA
Times less able than atRA to compete for binding to RARγ [14]: 2500 times
Induction of CYP26A1 mRNA in liver [15]: 37 fold above control
Induction of CYP26B1 mRNA expression in lungs [16]: induces CYP26B1 mRNA expression in a RA-like manner
